The NIST ThermoML archive (doi:10.1016/j.fluid.2008.01.004)

Assay: mn = molality of the nth substance listed, in mol/kg
Conditions: 101 kPa, Liquid; for speed of sound: Sing-around technique in a fixed-path interferometer; for molar conductivity: digital conductivity meter

O=P([O-])([O-])[O-].[Na+].[Na+].[Na+] [trisodium phosphate] + O
Conditions	mass density [kg/m3]	molar conductivity [S·m2/mol]	speed of sound [m/s]
283.15 K, m1 = 0.0026	–	0.0382	–
283.15 K, m1 = 0.0039	–	0.0361	–
283.15 K, m1 = 0.0053	–	0.0348	–
283.15 K, m1 = 0.0089	1001.51	–	1450.7
283.15 K, m1 = 0.0105	1001.84	0.0306	1451.2
283.15 K, m1 = 0.0116	1002.06	–	1451.5
283.15 K, m1 = 0.0132	1002.38	0.0293	1452
283.15 K, m1 = 0.0183	1003.44	0.0275	1453.4
283.15 K, m1 = 0.0234	1004.45	0.0259	1455
283.15 K, m1 = 0.0342	1006.62	0.0234	1457.8
283.15 K, m1 = 0.045	1008.77	0.0218	1460.7
283.15 K, m1 = 0.0563	1011	0.0211	1463.6
283.15 K, m1 = 0.0662	1012.94	0.0197	1466.1
283.15 K, m1 = 0.0767	–	0.0192	–
283.15 K, m1 = 0.088	1017.25	0.0186	1471.7
283.15 K, m1 = 0.0968	1018.97	0.0179	1473.9
283.15 K, m1 = 0.1086	1021.25	0.0178	1476.8
283.15 K, m1 = 0.1133	1022.18	0.0173	1477.9
283.15 K, m1 = 0.1296	1025.36	0.0166	1482
283.15 K, m1 = 0.141	1027.58	0.0161	1484.8
283.15 K, m1 = 0.1515	1029.56	0.0158	1487.3
283.15 K, m1 = 0.1638	1031.95	0.0159	1490.3
283.15 K, m1 = 0.1755	1034.17	0.0155	1493.1
283.15 K, m1 = 0.1868	1036.39	0.0153	1496
283.15 K, m1 = 0.1954	1037.96	0.0154	1498
283.15 K, m1 = 0.2224	1043.23	0.0145	1504.6
283.15 K, m1 = 0.2333	1045.32	0.0143	1507.2
283.15 K, m1 = 0.2509	1048.59	0.0142	1511.4
288.15 K, m1 = 0.0026	–	0.0395	–
288.15 K, m1 = 0.0039	–	0.0369	–
288.15 K, m1 = 0.0053	–	0.0363	–
288.15 K, m1 = 0.0089	1000.88	–	1469
288.15 K, m1 = 0.0105	1001.2	0.0325	1469.5
288.15 K, m1 = 0.0116	1001.42	–	1469.8
288.15 K, m1 = 0.0132	1001.74	0.0318	1470.2
288.15 K, m1 = 0.0183	1002.77	0.0292	1471.6
288.15 K, m1 = 0.0234	1003.77	0.0281	1473.1
288.15 K, m1 = 0.0342	1005.91	0.0253	1475.8
288.15 K, m1 = 0.045	1008.04	0.0236	1478.6
288.15 K, m1 = 0.0563	1010.23	0.0223	1481.5
288.15 K, m1 = 0.0662	1012.15	0.0216	1483.9
288.15 K, m1 = 0.0767	–	0.021	–
288.15 K, m1 = 0.088	1016.4	0.0199	1489.3
288.15 K, m1 = 0.0968	1018.1	0.0196	1491.5
288.15 K, m1 = 0.1086	1020.35	0.0191	1494.3
288.15 K, m1 = 0.1133	1021.28	0.0188	1495.4
288.15 K, m1 = 0.1296	1024.4	0.0181	1499.3
288.15 K, m1 = 0.141	1026.61	0.0175	1502.1
288.15 K, m1 = 0.1515	1028.56	0.0174	1504.5
288.15 K, m1 = 0.1638	1030.93	0.0174	1507.4
288.15 K, m1 = 0.1755	1033.12	0.0168	1510.1
288.15 K, m1 = 0.1868	1035.32	0.0165	1512.9
288.15 K, m1 = 0.1954	1036.87	0.0162	1514.8
288.15 K, m1 = 0.2224	1042.08	0.0153	1521.3
288.15 K, m1 = 0.2333	1044.14	0.0152	1523.9
288.15 K, m1 = 0.2509	1047.38	0.015	1527.9
293.15 K, m1 = 0.0026	–	0.0406	–
293.15 K, m1 = 0.0039	–	0.0379	–
293.15 K, m1 = 0.0053	–	0.038	–
293.15 K, m1 = 0.0089	999.952	–	1485.1
293.15 K, m1 = 0.0105	1000.27	0.0342	1485.6
293.15 K, m1 = 0.0116	1000.49	–	1486
293.15 K, m1 = 0.0132	1000.8	0.0333	1486.3
293.15 K, m1 = 0.0183	1001.83	0.0309	1487.7
293.15 K, m1 = 0.0234	1002.81	0.0297	1489.2
293.15 K, m1 = 0.0342	1004.92	0.0264	1491.8
293.15 K, m1 = 0.045	1007.02	0.0249	1494.5
293.15 K, m1 = 0.0563	1009.2	0.0236	1497.3
293.15 K, m1 = 0.0662	1011.09	0.0227	1499.7
293.15 K, m1 = 0.0767	–	0.0218	–
293.15 K, m1 = 0.088	1015.29	0.0209	1504.9
293.15 K, m1 = 0.0968	1016.97	0.0206	1507
293.15 K, m1 = 0.1086	1019.2	0.0201	1509.7
293.15 K, m1 = 0.1133	1020.11	0.0198	1510.8
293.15 K, m1 = 0.1296	1023.21	0.0189	1514.6
293.15 K, m1 = 0.141	1025.39	0.0185	1517.3
293.15 K, m1 = 0.1515	1027.32	0.0182	1519.7
293.15 K, m1 = 0.1638	1029.67	0.0181	1522.5
293.15 K, m1 = 0.1755	1031.84	0.0176	1525.2
293.15 K, m1 = 0.1868	1034.01	0.0172	1527.8
293.15 K, m1 = 0.1954	1035.55	0.0171	1529.7
293.15 K, m1 = 0.2224	1040.71	0.0162	1536
293.15 K, m1 = 0.2333	1042.76	0.016	1538.5
293.15 K, m1 = 0.2509	1045.97	0.0157	1542.4
298.15 K, m1 = 0.0026	–	0.0415	–
298.15 K, m1 = 0.0039	–	0.0401	–
298.15 K, m1 = 0.0053	–	0.0392	–
298.15 K, m1 = 0.0089	998.77	–	1499.3
298.15 K, m1 = 0.0105	999.088	0.0359	1499.8
298.15 K, m1 = 0.0116	999.3	–	1500.2
298.15 K, m1 = 0.0132	999.611	0.0347	1500.5
298.15 K, m1 = 0.0183	1000.62	0.0328	1501.8
298.15 K, m1 = 0.0234	1001.6	0.031	1503.3
298.15 K, m1 = 0.0342	1003.68	0.028	1505.8
298.15 K, m1 = 0.045	1005.76	0.0263	1508.5
298.15 K, m1 = 0.0563	1007.91	0.025	1511.1
298.15 K, m1 = 0.0662	1009.78	0.0239	1513.4
298.15 K, m1 = 0.0767	–	0.0231	–
298.15 K, m1 = 0.088	1013.95	0.0221	1518.5
298.15 K, m1 = 0.0968	1015.61	0.0217	1520.6
298.15 K, m1 = 0.1086	1017.82	0.0211	1523.3
298.15 K, m1 = 0.1133	1018.73	0.0207	1524.3
298.15 K, m1 = 0.1296	1021.79	0.0199	1528
298.15 K, m1 = 0.141	1023.96	0.0195	1530.7
298.15 K, m1 = 0.1515	1025.87	0.0193	1532.9
298.15 K, m1 = 0.1638	1028.19	0.0191	1535.7
298.15 K, m1 = 0.1755	1030.35	0.0186	1538.3
298.15 K, m1 = 0.1868	1032.5	0.018	1540.8
298.15 K, m1 = 0.1954	1034.03	0.0178	1542.7
298.15 K, m1 = 0.2224	1039.14	0.0169	1548.8
298.15 K, m1 = 0.2333	1041.17	0.0168	1551.2
298.15 K, m1 = 0.2509	1044.36	0.0163	1555
303.15 K, m1 = 0.0026	–	0.0409	–
303.15 K, m1 = 0.0039	–	0.0404	–
303.15 K, m1 = 0.0053	–	0.0398	–
303.15 K, m1 = 0.0089	997.355	–	1511.7
303.15 K, m1 = 0.0105	997.668	0.0367	1512.1
303.15 K, m1 = 0.0116	997.879	–	1512.5
303.15 K, m1 = 0.0132	998.187	0.0355	1512.8
303.15 K, m1 = 0.0183	999.189	0.0333	1514.1
303.15 K, m1 = 0.0234	1000.15	0.0318	1515.6
303.15 K, m1 = 0.0342	1002.22	0.029	1518
303.15 K, m1 = 0.045	1004.28	0.0274	1520.6
303.15 K, m1 = 0.0563	1006.41	0.0259	1523.2
303.15 K, m1 = 0.0662	1008.27	0.0248	1525.5
303.15 K, m1 = 0.0767	–	0.0238	–
303.15 K, m1 = 0.088	1012.39	0.023	1530.5
303.15 K, m1 = 0.0968	1014.04	0.0226	1532.4
303.15 K, m1 = 0.1086	1016.24	0.0216	1535
303.15 K, m1 = 0.1133	1017.13	0.0215	1536.1
303.15 K, m1 = 0.1296	1020.18	0.0208	1539.6
303.15 K, m1 = 0.141	1022.32	0.0201	1542.2
303.15 K, m1 = 0.1515	1024.22	0.0198	1544.4
303.15 K, m1 = 0.1638	1026.53	0.0198	1547.1
303.15 K, m1 = 0.1755	1028.66	0.0193	1549.6
303.15 K, m1 = 0.1868	1030.8	0.0186	1552.1
303.15 K, m1 = 0.1954	1032.32	0.0182	1553.9
303.15 K, m1 = 0.2224	1037.39	0.0173	1559.9
303.15 K, m1 = 0.2333	1039.41	0.0171	1562.2
303.15 K, m1 = 0.2509	1042.57	0.0167	1565.9
